Assay [1] addresses T1, HMG-CoA reductase (Homo sapiens, UniProt P04035).
T1 construct: hepatocytes isolated from livers of 8-week old female chickens; endogenous in cells; host or cells: primary chicken hepatocytes
T1 sequence (P04035 1-888): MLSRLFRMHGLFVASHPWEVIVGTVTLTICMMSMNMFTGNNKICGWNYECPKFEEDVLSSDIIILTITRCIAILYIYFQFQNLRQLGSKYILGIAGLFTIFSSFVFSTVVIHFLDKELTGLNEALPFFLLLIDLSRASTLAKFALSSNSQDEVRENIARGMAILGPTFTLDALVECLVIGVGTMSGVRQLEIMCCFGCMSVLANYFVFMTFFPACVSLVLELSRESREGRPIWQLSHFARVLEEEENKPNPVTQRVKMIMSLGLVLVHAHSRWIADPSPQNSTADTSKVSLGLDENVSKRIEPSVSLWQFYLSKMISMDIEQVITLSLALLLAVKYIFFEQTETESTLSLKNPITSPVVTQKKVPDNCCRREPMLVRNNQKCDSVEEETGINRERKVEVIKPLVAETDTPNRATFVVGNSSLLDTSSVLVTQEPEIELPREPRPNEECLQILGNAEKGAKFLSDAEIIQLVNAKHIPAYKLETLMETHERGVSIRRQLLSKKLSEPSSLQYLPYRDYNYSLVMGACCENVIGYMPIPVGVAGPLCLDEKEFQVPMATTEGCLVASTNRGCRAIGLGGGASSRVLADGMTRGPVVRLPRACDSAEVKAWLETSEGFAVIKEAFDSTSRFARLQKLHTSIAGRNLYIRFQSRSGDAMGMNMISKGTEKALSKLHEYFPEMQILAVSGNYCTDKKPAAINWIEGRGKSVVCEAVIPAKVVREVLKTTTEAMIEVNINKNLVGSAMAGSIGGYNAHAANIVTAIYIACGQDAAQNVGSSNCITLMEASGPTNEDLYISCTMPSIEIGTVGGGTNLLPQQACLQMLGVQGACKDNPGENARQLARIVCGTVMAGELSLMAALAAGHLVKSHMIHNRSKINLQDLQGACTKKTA
Description: Hepatic HMG-CoA reductase activity in chickens fed supplemented diets. It is filed as in vivo, chicken. Particulars: 4 weeks; for HMG-CoA Reductase, percentage of control: control diet + 50 ppm.
Description: This example measured the effects of the TRF and its components on the hepatic enzymatic activity of HMG-CoA reductase and cholesterol 7α-hydroxylase. […] The amount of feed consumed ranged from 11.19-11.60 g per chicken and the feeding period was 4 weeks. The birds were fasted for a period of 36 hours and refed for 48 hours prior to sacrifice (at 0800 hours).

For assay [2], the target named is T2, HMG-CoA reductase (Sus scrofa, UniProt Q1W675).
T2 construct: The hepatic enzymatic activity of the HMG-CoA reductase decreased approximately 30%; from tissue; host or cells: pig liver, microsomes
T2 sequence (Q1W675 1-885): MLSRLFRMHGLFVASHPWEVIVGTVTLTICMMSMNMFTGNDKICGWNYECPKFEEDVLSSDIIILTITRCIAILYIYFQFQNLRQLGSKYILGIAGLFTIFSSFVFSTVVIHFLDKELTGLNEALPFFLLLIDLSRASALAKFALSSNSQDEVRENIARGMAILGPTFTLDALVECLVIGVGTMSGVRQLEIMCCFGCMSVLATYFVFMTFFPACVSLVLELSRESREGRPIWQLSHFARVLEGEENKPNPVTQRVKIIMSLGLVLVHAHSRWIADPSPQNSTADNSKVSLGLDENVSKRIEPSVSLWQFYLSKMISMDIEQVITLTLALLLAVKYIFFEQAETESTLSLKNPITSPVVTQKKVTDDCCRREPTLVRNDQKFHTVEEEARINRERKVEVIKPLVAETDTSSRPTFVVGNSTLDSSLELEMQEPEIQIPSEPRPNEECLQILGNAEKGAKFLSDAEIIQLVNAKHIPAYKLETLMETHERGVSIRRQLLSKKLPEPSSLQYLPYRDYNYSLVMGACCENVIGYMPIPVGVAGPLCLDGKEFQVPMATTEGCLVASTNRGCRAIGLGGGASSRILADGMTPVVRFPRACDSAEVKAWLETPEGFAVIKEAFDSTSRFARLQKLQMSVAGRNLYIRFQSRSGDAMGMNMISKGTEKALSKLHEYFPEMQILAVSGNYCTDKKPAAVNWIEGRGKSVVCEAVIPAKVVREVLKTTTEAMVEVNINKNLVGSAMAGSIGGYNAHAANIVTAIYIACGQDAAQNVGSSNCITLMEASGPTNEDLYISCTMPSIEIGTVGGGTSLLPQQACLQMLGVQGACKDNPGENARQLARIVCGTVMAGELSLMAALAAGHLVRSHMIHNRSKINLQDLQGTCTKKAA
The assay is described as follows: Hepatic HMG-CoA reductase activity in hypercholesterolemic swine. Particulars: control diet + 50 ppm. In kind it is in vivo. The text has this:
All assays conducted on chicken or swine serum were done following the protocols described in A. A. Qureshi et al., "Lowering Of Serum Cholesterol In Hypercholesterolemic Humans By Tocotrienols" (Palmvitee), Am. J. Clin. Nutr., 53, pp. 1021S-26S (1991). All enzymatic assays were done following the protocols described in A. A. Qureshi et al., "Effects of Cereals and Culture Filtrate of Trichoderma viride on Lipid Metabolism of Swine", Lipids, 17, pp. 924 (1982). Plasma insulin, glucagon and TNF levels were measured using radioinnumoassay kits from Ventrex Laboratories, Inc. (Portland, Me.), ICN Biomedicals, Inc. (Costa Mesa, Calif.) and Genzyme Corp. (Cambridge, Mass.), respectively.
We next measured the effects of various tocotrienols from rice bran on HMG-CoA reductase and cholesterol 7α-hydroxylase in hypercholesterolemic swine. Since pigs are very similar to humans in their cholesterol metabolism, they provide a useful model from which to study hypercholesterolemia and related diseases. […] The serum cholesterol concentration in these swine is typically above 300-500 mg/dl, as compared to 120-160 mg/dl in normal adult swine. As a result, the pigs develop complicated atherosclerotic plaques that closely resemble advanced atherosclerotic lesions found in humans.
Each group of three 5-month old swine was administered either a control diet or a control diet supplemented with 50 ppm of TRF or 50 ppm of an individual tocotrienol. The samples were prepared as described in Example 11. After a 12 hour fast, serum and plasma samples were taken a 0 hrs, 21 days and 42 days from the start of the feeding period. After taking serum and plasma samples from the pigs at the end of the 42 day period, all of the swine were fasted for a total of 40 hours, followed by a 48 hour refeeding period. One swine from each group was sacrificed at that time and the liver, intestine, lung, heart, loin muscle, adipose tissue and ham muscle were removed.

Each structure is given as a SMILES string.

For `CC(C)=CCC/C(C)=C/CC/C(C)=C/CCC1(C)CCc2cc(O)ccc2O1` (stereo not shown) [P21, 3,4-dihydro-2-methyl-2-(4,8,12-trimethyltrideca-3' (E),7'(E),11'-trienyl)-2H-1-benzopyran-6-ol], the “HMG-CoA Reductase, percentage of control” value on HMG-CoA reductase [1] stood at 72.83%. At HMG-CoA reductase [2] (21 days), the “HMG-CoA REDUCTASE” value is 304.23 pg/min/mg of microsomes and the “HMG-CoA REDUCTASE, percentage of 0-time value” is recorded as 89.38%. In addition, on HMG-CoA reductase [2] (42 days), the “HMG-CoA REDUCTASE” value was 275.75 pg/min/mg of microsomes; the “HMG-CoA REDUCTASE, Percentage of Control Activity” value was 73.59%; the “HMG-CoA REDUCTASE, percentage of 0-time value” is recorded as 81.02%.
In the case of `CC(C)=CCC/C(C)=C/CC/C(C)=C/CCC1CCc2cc(O)ccc2O1` (stereo not shown) [P25, 3,4-dihydro-2-(4,8,12-trimethyltrideca-3'(E),7'(E),11'-trienyl)-2H-1-benzopyran-6-ol], the “reduction of enzymatic activity of HMG-CoA reductase” value on HMG-CoA reductase [1] (50 ppm in diet) was “about 28%”. Moreover, the “HMG-CoA Reductase, percentage of control” value at HMG-CoA reductase [1] is listed as 71.33%. In addition, at HMG-CoA reductase [2] (21 days), the “HMG-CoA REDUCTASE” value is listed as 307.27 pg/min/mg of microsomes and the “HMG-CoA REDUCTASE, percentage of 0-time value” came out at 87.58%. Further, at HMG-CoA reductase [2] (42 days), the “HMG-CoA REDUCTASE” value was 269.43 pg/min/mg of microsomes; the “HMG-CoA REDUCTASE, Percentage of Control Activity” value is recorded as 69.75%; the “HMG-CoA REDUCTASE, percentage of 0-time value” was 76.79%.
With `CC(C)=CCC/C(C)=C/CC/C(C)=C/CCC1(C)CCc2cc(O)c(C)c(C)c2O1` (stereo not shown) [γ-T3, γ-tocotrienol, reference compound], the “HMG-CoA Reductase, percentage of control” value on HMG-CoA reductase [1] is listed as 78.32%. For the same molecule, on HMG-CoA reductase [2] (21 days), the “HMG-CoA REDUCTASE” value is on record as 300.72 pg/min/mg of microsomes and the “HMG-CoA REDUCTASE, percentage of 0-time value” was found to be 86.19%. Moreover, on HMG-CoA reductase [2] (42 days), the “HMG-CoA REDUCTASE” value is 280.88 pg/min/mg of microsomes; the “HMG-CoA REDUCTASE, Percentage of Control Activity” value amounted to 73.31%; the “HMG-CoA REDUCTASE, percentage of 0-time value” amounted to 80.71%.

(Values after patent US6239171A, “Tocotrienols and tocotrienol-like compounds and methods for their use” (Lipogenics, Inc., priority 1998, dated 2001).)
